# According to US12325708B2, “Adenosine 2 receptor antagonists” (Nektar Therapeutics, priority 2019, dated 2025):
# Experiments:
# A1 receptor = target: T1, A1 receptor (Homo sapiens, UniProt P30542); assay: Radioligand receptor binding assay, A1 receptor; details: cell membranes overexpressing A1 receptor, read-out: Potency Ki A1
# T1 construct: purchased
# T1 sequence (P30542 1-326): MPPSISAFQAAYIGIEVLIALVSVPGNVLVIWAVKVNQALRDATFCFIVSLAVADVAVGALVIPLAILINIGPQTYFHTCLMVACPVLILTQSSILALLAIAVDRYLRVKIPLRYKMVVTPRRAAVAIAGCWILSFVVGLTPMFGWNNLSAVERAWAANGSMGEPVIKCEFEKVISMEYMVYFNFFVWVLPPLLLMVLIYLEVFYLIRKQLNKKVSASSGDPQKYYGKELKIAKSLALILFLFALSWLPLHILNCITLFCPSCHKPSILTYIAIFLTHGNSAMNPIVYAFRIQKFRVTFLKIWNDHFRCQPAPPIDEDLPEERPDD
# Protocol: (§1) Using conventional receptor binding assay techniques, Compounds 1-24 were assayed to determine binding activity at the A2A, A1, and A3 receptors with the results shown in Table 7.
# (§2) Receptor binding affinity of Compounds 1-24 was measured using radioligand binding assays using commercially obtained cell membranes prepared from cell lines overexpressing the A2A, A1, or A3 receptors. Briefly, cell membrane preparations from cells expressing the specific receptor were mixed with the appropriate [^3H]-labeled tracer for the specific receptor and the test compound or a known inhibitor of receptor-ligand binding. Following 60 min incubation at room temperature to allow receptor-ligand complex formation, the complexes were collected by filtration, washed with 50 mM Tris HCl (pH 7.5) to remove radioligand that was not receptor-bound, and the remaining radioactivity determined by liquid scintillation counting. Specific radioligand binding was calculated for each test compound concentration and IC50 values were determined by non-linear, regression analysis. Inhibition constants (Ki) were calculated using the equation of Cheng and Prusoff using the observed IC50 of the tested compound, the concentration of radioligand employed in the assay and the experimentally determined values for the Kd of the ligand.
# A2A receptor = target: T2, A2A receptor (Homo sapiens, UniProt P29274); assay: Radioligand receptor binding assay, A2A receptor; details: cell membranes overexpressing A2A receptor, read-out: Potency Ki A2A
# T2 construct: purchased
# Protocol: as §1, §2
# [1] = Plasma pharmacokinetic parameters following intravenous (IV) or oral (PO) administration in rats; assay type: in vivo, Sprague-Dawley rats; details: rat
# Protocol: (§3) Adult male Sprague-Dawley rats (230-250 g) (Charles River Labs, Hollister, CA) were utilized for the study. There were 2 rats/group. All animals were food fasted overnight with water provided ad libitum at all times. Compounds 1, 4, 14 and 19 were synthesized as described in Examples 2, 17, 7, and 12, respectively, and formulated in injectable water.
# (§4) The morning of each dosing, individual doses were calculated based on current body weights on the day of dosing. The jugular vein cannula (JVC) and the carotid artery cannula (CAC) were externalized, flushed with HEP/saline (10 IU/mL HEP/mL saline), plugged, and labeled to identify the jugular vein and the carotid artery. The IV group animals were dosed at 0.5 mg/kg of Compound 1, 4, 14 or 19, respectively, intravenously via the jugular vein, while the PO dose was administered 2.5 mg/kg of Compound 1, 4, 14 or 19, respectively, orally via gavage. For the IV group, immediately following the dose of test article, the dead volume of the catheter was flushed with 0.9% saline to ensure the animals received the full dose.
# Approximately 0.2 mL of blood was collected per time point from JVC. Blood samples were collected at 2 (IV group only), 5, 15, 30, 60, 120, 240, 360, 420 (Compound 19 only), 480, 720 (Compound 19 only), and 1440 minutes via the CAC and transferred immediately into K2EDTA coated tubes pre-loaded 2 μl with quenching cocktail and placed on wet ice. The samples were centrifuged within 30 min after collection at 10,000 RPM for 5 minutes and the resulting plasma was separated. Plasma was transferred into microfuge tubes and placed on dry ice immediately. The plasma samples were stored at approximately −70° C. until bioanalysis.
# Plasma samples were extracted by protein precipitation with acetonitrile containing 0.1% formic acid and doxepin for Compound 1 (available from Sigma-Aldrich) or SCH58261 for Compounds 4, 14 and 19 (available from Sigma-Aldrich) as an internal standard. Following vortex and centrifugation, supernatant was diluted 3-fold with water containing 0.1% formic acid and analyzed by LC-MS/MS.
# Pharmacokinetic parameters (PK) were determined by non-compartmental analysis (NCA) using Phoenix 64 WinNonlin (version 8) and Dotmatics (version 5.0). Nominal doses and time points were used for the analysis.
# The following PK parameters were estimated using plasma concentration-time profile of each animal with the results presented in Table 3: • AUCinf Area under the concentration-time from zero to time infinity • AUClast Area under the concentration-time from zero to time of last concentration value • F Bioavailability • CL Total body clearance • Cmax Maximum (peak) concentration • MRTlast Mean residence time to last observable concentration • Tmax Time to reach maximum or peak concentration following administration • Vss Volume of distribution at steady state
# as §3, with “Compound 1 was” for “Compounds 1, 4, 14 and 19 were”, “Example 2” for “Examples 2, 17, 7, and 12, respectively,”
# as §4, with “1” for “1, 4, 14 or 19, respectively,”
# Approximately 0.2 mL of blood was collected per time point from JVC. […]
# [2] = Brain-to-plasma ratio (B/P) after administration; assay type: in vivo, Sprague-Dawley rats; details: Sprague-Dawley, rat, brain-to-plasma ratio at 1 h
# Text: A similar unexpected result was obtained when the phenyl ring present on Compound 1 was replaced with a halogen substituted pyridine. The halogen was previously introduced on the phenyl ring with the aim of blocking a possible metabolic soft-spot, with similar results observed as for Compound 1 in terms of exposure, clearance and bioavailability (Compound 10 and Compound 15). The substituted pyridine ring was designed to modulate the lipophilicity and polar surface area, as well as to address metabolic soft-spot concerns. Clearance and bioavailability parameters remain similar between substituted phenyl and pyridine (Compound 4 and Compound 14) analogs, which span a range in cLogP of 2.7-3.2. It was therefore surprising the significant improvement in exposure and clearance observed for the more lipophilic Compound 19. […] A compound is commonly deemed to be a brain penetrant if the brain-to-blood/plasma concentration ratio (B/P) is greater than 0.04 using methods as known in the art (Schaffer, Annual Reports in Medicinal Chemistry, 45:55-70, 2010).
# Plasma pharmacokinetic parameters were determined following oral (PO) administration of further compounds essentially as described in Example 28 with the results shown in Table 6.
# [3] = male, Sprague-Dawley, plasma, iv, 0.5 mg/kg, IV 0.5 mg/kg, injectable water
# [4] = male, Sprague-Dawley, plasma, oral, 2.5 mg/kg, Table 2 summary of Example 27, values marked 1 are the average of experiments
# [5] = male, Sprague-Dawley, plasma, po, 2.5 mg/kg, PO 2.5 mg/kg via gavage, injectable water
# [6] = male, Sprague-Dawley, plasma, 2.5 mg/kg, Table 6, oral (PO) administration essentially as described in Example 28
# [7] = male, Sprague-Dawley, plasma, intravenous, 0.5 mg/kg, Table 6, essentially as described in Example 28
# [8] = male, Sprague-Dawley, plasma, po, 2.5 mg/kg, Table 6, oral (PO) administration essentially as described in Example 28
# T2 sequence (P29274 whole entry): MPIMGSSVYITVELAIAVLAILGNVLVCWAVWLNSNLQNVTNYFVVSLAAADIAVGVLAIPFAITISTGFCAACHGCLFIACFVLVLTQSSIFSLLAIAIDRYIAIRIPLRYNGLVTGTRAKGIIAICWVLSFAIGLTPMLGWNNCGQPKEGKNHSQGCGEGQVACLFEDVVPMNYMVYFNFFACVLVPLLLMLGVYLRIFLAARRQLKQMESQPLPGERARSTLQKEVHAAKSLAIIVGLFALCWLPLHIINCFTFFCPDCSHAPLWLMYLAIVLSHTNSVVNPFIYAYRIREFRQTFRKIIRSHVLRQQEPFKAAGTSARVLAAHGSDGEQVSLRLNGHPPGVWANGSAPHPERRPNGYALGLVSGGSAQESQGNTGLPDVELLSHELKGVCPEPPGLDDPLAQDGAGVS
SMILES,Ki (A1 receptor) [µM],Ki (A2A receptor) [µM],"AUC [1, 6] [µg·h/mL]","clearance [1, 7] [L/h/kg]","bioavailability [1, 8] [%]","Kp at 1 h ([2]; oral, 2.5 mg/kg, Table 6)",also measured
"COCCOc1cnc(N2CCN(CCN(C)c3cc4nc(-c5ncco5)nn4c(N)n3)CC2)c(Cl)c1 [Compound 14, N^7-(2-{4-[3-chloro-5-(2-methoxyethoxy)pyridin-2-yl]piperazin-1-yl}ethyl)-N^7-methyl-2-(1,3-oxazol-2-yl)[1,2,4]triazolo[1,5-c]pyrimidine-5,7-diamine]",15,0.004,–,–,–,–,"clearance ([1]; male, Sprague-Dawley, plasma, intravenous, 0.5 mg/kg, Table 2 summary of Example 27, values marked 1 are the average of experiments): 1.02 L/h/kg; AUC(0-inf) [1, 3]: 0.526 µg·h/mL; AUC(0-t) [1, 3]: 0.523 µg·h/mL; MRT last [1, 3]: 0.977 h; clearance [1, 3]: 0.996 L/h/kg; Vd ([1]; male, Sprague-Dawley, plasma, iv, 0.5 mg/kg, IV 0.5 mg/kg, injectable water, read-out: Vss obs): 1.02 L/kg; AUC [1, 4]: 1.48 µg·h/mL; bioavailability [1, 4]: 56%; AUC(0-inf) [1, 5]: 1.48 µg·h/mL; AUC(0-t) [1, 5]: 1.37 µg·h/mL; MRT last [1, 5]: 2.43 h; Cmax ([1]; male, Sprague-Dawley, plasma, po, 2.5 mg/kg, PO 2.5 mg/kg via gavage, injectable water, read-out: Cmax): 0.373 µg/mL; Tmax ([1]; male, Sprague-Dawley, plasma, po, 2.5 mg/kg, PO 2.5 mg/kg via gavage, injectable water, read-out: Tmax): 1 h; Total clearance as % liver blood flow ([1]; IV): ~28 % liver blood flow; F ([1]; PO 2.5 mg/kg vs IV 0.5 mg/kg): 56.1%; Kp at 1 h ([2]; Table 2): 0.025"
"COCCOc1ccc(N2CCN(CCN(C)c3cc4nc(-c5ncco5)nn4c(N)n3)CC2)c(Cl)c1 [Compound 15, N^7-(2-{4-[2-chloro-4-(2-methoxyethoxy)phenyl]piperazin-1-yl}ethyl)-N^7-methyl-2-(1,3-oxazol-2-yl)[1,2,4]triazolo[1,5-c]pyrimidine-5,7-diamine]",3.94,0.0023,1.16,1.2,57,0.05,"half-life ([1]; male, Sprague-Dawley, plasma, Table 6, printed in the CL column, read-out: t½ (converted)): 1.2 h"
"[2H]C([2H])([2H])OCCOc1ccc(N2CCN(CCN(C)c3cc4nc(-c5ncco5)nn4c(N)n3)CC2)c(F)c1 [Compound 10, N^7-{2-[4-(2-fluoro-4-{2-[(^2H3)methyloxy]ethoxy}phenyl)piperazin-1-yl]ethyl}-N^7-methyl-2-(1,3-oxazol-2-yl)[1,2,4]triazolo[1,5-c]pyrimidine-5,7-diamine]",> 10,0.0055,0.819,1.8,57,0.09,–
"COCCOc1cnc(N2CCN(CCN(C)c3cc4nc(-c5ncco5)nn4c(N)n3)CC2)nc1 [Compound 3, N^7-(2-{4-[5-(2-methoxyethoxy)pyrimidin-2-yl]piperazin-1-yl}ethyl)-N^7-methyl-2-(1,3-oxazol-2-yl)[1,2,4]triazolo[1,5-c]pyrimidine-5,7-diamine]",20.1,0.01,0.376,2.82,44,0.04,–
"[2H]C([2H])([2H])OCCOc1ccc(N2CCN(CCN(c3cc4nc(-c5ncco5)nn4c(N)n3)C([2H])([2H])[2H])CC2)cc1 [Compound 8, N^7-(^2H3)methyl-N^7-{2-[4-(4-{2-[(^2H3)methyloxy]ethoxy}phenyl)piperazin-1-yl]ethyl}-2-(1,3-oxazol-2-yl)[1,2,4]triazolo[1,5-c]pyrimidine-5,7-diamine]",> 4,0.004,1.2,1.32,63,0.04,–
"COCCOc1ccc(N2CCN(CCN(C)c3cc4nc(-c5ncco5)nn4c(N)n3)CC2)nc1 [Compound 23, N^7-(2-{4-[5-(2-methoxyethoxy)pyridin-2-yl]piperazin-1-yl}ethyl)-N^7-methyl-2-(1,3-oxazol-2-yl)[1,2,4]triazolo[1,5-c]pyrimidine-5,7-diamine]",15.5,0.009,0.336,3.12,42,0.08,–
"COCCOc1cnc(N2CCN3[C@H](CC[C@H]3CN(C)c3cc4nc(-c5ncco5)nn4c(N)n3)C2)c(F)c1 [Compound 21, N^7—({(6S,8aR)-2-[3-fluoro-5-(2-methoxyethoxy)pyridin-2-yl]octahydropyrrolo[1,2-a]pyrazin-6-yl}methyl)-N^7-methyl-2-(1,3-oxazol-2-yl)[1,2,4]triazolo[1,5-c]pyrimidine-5,7-diamine]",3.08,0.008,0.429,1.8,31,0.05,–
"[2H]C([2H])([2H])OC([2H])([2H])C([2H])([2H])Oc1ccc(N2CCN(CCN(C)c3cc4nc(-c5ncco5)nn4c(N)n3)CC2)cc1 [Compound 12, N^7-methyl-N^7-(2-{4-[4-({2-[(^2H3)methyloxy](^2H4)ethyl}oxy)phenyl]piperazin-1-yl}ethyl)-2-(1,3-oxazol-2-yl)[1,2,4]triazolo[1,5-c]pyrimidine-5,7-diamine]",> 100,0.004,1,1.38,56,0.03,–
